Laboratory results taken from patent US8507219B2, “Method of treating inflammation with statins” (MUSC Foundation for Research Development, priority 1997, dated 2013).

Legend:
[1] = test system: NO production in rat resident macrophages; experiment: LPS-/cytokine-induced NO production (nitrite) in rat resident peritoneal macrophages; type: cell-based; details: LPS 1.0 μg/ml, 24 h
Method: Isolation of Rat Macrophages and Induction of NO Production Resident macrophages were obtained from rats by peritoneal lavage with sterile RPMI 1640 medium containing 1% fetal bovine serum and 100 μg/ml gentamicin (Wang et al., 1995). Cells were washed three times with RPMI 1640 at 4° C. All cell cultures were maintained at 37° C. in a humidified incubator containing 5% CO2 in air. Macrophages, at a concentration of 2×10^6/ml in RPMI 1640 medium containing L-glutamine and gentamicin, were added in volumes of 800 μl to a 35 mm plate. After 1 h, nonadherent cells were removed by washing and 800 μl of serum-free RPMI 1640 medium with various stimuli were added to the adherent cells. After 24 h incubation in 5% CO2 in air at 37° C., the culture supernatants were transferred to measure NO production (Geng et al., 1995; Wang et al., 1995).
Isolation of rat macrophages and induction of NO production Resident macrophages were obtained from rat by peritoneal lavage with sterile RPMI 1640 medium containing 1% fetal bovine serum and 100 μg/ml gentamicin as described herein. Cells were washed three times with RPMI 1640 at 4° C. All cell cultures were maintained at 37° C. in a humidified incubator containing 5% CO2 in air. Macrophages at a concentration of 2×10^6/ml in RPMI 1640 medium containing L-glutamine and gentamicin were added in volumes of 800 μl to a 35 mm plate. After 1 h, nonadherent cells were removed by washing and 800 μl of serum-free RPMI 1640 medium with various stimuli were added to the adherent cells. After incubation in 5% CO2 in air at 37° C., culture supernatants were transferred to measure NO production.
Isolation of rat macrophages and induction of NO production Resident macrophages were obtained from rat by peritoneal lavage with sterile RPMI 1640 medium containing 1% FBS and 100 μg/ml gentamicin. Cells were washed three times with RPMI 1640 at 4° C., and were maintained at 37° C. in a humidified incubator containing 5% CO2 in air. Macrophages at a concentration of […] in RPMI 1640 medium containing L-glutamine and gentamicin were added in volumes of 800 μl to a 35-mm plate. After 1 h, nonadherent cells were removed by washing, and 800 μl of serum-free RPMI 1640 medium with various stimuli was added to the adherent cells. After 24 h the culture supernatants were transferred to measure NO production.
Protein was measured (Bradford, 1976).

[2] = test system: murine macrophage cell line RAW 264.7; experiment: LPS-/cytokine-induced NO production and iNOS protein in RAW 264.7; type: cell-based; details: 24 h
Method: Cells in this study were incubated in serum-free DMEM/F-12 received calyculin A along with LPS and cytokines. Samples tested included control, LPS+TNF-α, TNF-α+IFN-γ, TNF-α+IL-1β, LPS+TNF-α+calyculin A, TNF-α+IFN-γ+calyculin A, and TNF-α+IL-1β+calyculin A. After 24 h, concentration of nitrite (nmol/mg/24 h) was measured in the supernatants as described in Example 6. Data are mean±S.D. of three different studies. Cell homogenates were electrophoresed, transferred on […] against mouse macrophage iNOS as described.

[3] = test system: TNF-α production in rat resident macrophages; experiment: LPS-/IFN-γ-induced TNF-α production (ELISA) in rat macrophages; type: cell-based; details: Macrophages, LPS 1.0 μg/ml, 24 h
[4] = test system: NO production in rat C6 glial cells; experiment: LPS-/cytokine-induced NO production (nitrite) in C6 glial cells; type: cell-based; details: 2 nM calyculin A along with LPS and cytokines, 24 h
[5] = test system: TNF-α production in rat primary astrocytes; experiment: LPS-induced TNF-α production (ELISA) in rat primary astrocytes; type: cell-based; details: Astrocytes, LPS 1.0 μg/ml, 24 h
Method: Determination of TNF-α and IL-1β in culture supernatants Cells were stimulated with LPS in serum-free media for 24 h in the presence or absence of forskolin or rolipram, and concentrations of TNF-α and IL-1β were measured in culture supernatants by using high-sensitivity enzyme-linked immunosorbent assay (R&D Systems, USA) according to the manufacturer's instructions.

iNOS = experiment: Expression of iNOS protein (immunoblot) and mRNA (Northern) in rat primary astrocytes; type: cell-based; details: LPS 1.0 μg/ml
Method: (§1) Immunoblot analysis for iNOS Following 24 h incubation in the presence or absence of stimuli by different cytokines or LPS, macrophages were scraped off, washed with Hank's buffer, and homogenized in 50 mM Tris-HCl (pH 7.4) containing protease inhibitors (1 nM PMSF, 5 μg/ml aprotinin, 5 μg/ml pepstatin A, and 5 μg/ml leupeptin). After electrophoresis the proteins were transferred onto a nitrocellulose membrane, and the iNOS band was visualized by immunoblotting with antibodies against mouse macrophage iNOS and [^125I]-labeled protein A (Singh et al., 1988).
RNA isolation, Northern blot analysis, and reverse-transcriptase coupled polymerase chain reaction (RT-PCR) Stimulated peritoneal macrophages were taken out from culture dishes directly by adding Ultraspec-II RNA reagent (Biotecx Laboratories Inc.) and total RNA was isolated according to the manufacturer's protocol. For northern blot analyses, 20 μg of total RNA was electrophoresed on 1.2% denaturing formaldehyde-agarose gels, electrotransferred to Hybond-Nylon Membrane (Amersham) and hybridized at 68° C. with ^32P-labeled cDNA probe using Express Hyb hybridization solution (Clontech) as described by the manufacturer. […]; After hybridization filters were washed two to three times in solution I (2×SSC, 0.05% SDS) for 1 h at room temperature followed by solution II (0.1×SSC, 0.1% SDS) at 50° C. for another hour. The membranes were then dried and exposed to X-ray film (Kodak). The same filters were stripped and rehybridized with probes for GAPDH. The relative mRNA content for iNOS was measured after scanning the bands with a Biorad (Model GS-670) imaging densitometer.
as §1, with “of” for “of stimuli by”, “stimuli, cells” for “cytokines or LPS, macrophages”, “inhibitors.” for “inhibitors (1 nM PMSF, 5 μg/ml aprotinin, 5 μg/ml pepstatin A, and 5 μg/ml leupeptin).”, “A.” for “A (Singh et al., 1988).”
RNA isolation and Northern blot analysis Cells were taken out from culture dishes directly by adding Ultraspec-II RNA reagent (Biotecx Laboratories Inc.) and total RNA was isolated according to the manufacturer's protocol. For Northern blot analyses, 20 μg of total RNA was electrophoresed on 1.2% denaturing formaldehyde-agarose gels, electrotransferred to Hybond-Nylon Membrane (Amersham) and hybridized at 68° C. with ^32P-labeled cDNA probe using Express Hyb hybridization solution (Clontech) as described by the manufacturer. […]; After hybridization filters were washed two or three times in solution I (2×SSC, 0.05% SDS) for one hour at room temperature followed by solution II (0.1×SSC, 0.1% SDS) at 50° C. for another hour. The membranes were then dried and exposed with X-ray films (Kodak). The same filters were stripped and rehybridized with probes for GAPDH. The relative mRNA content for iNOS was measured after scanning the bands with a Biorad (Model GS-670) imaging densitometer.
as §1, with “After a” for “Following”, “of” for “of stimuli by”, “stimuli, cells” for “cytokines or LPS, macrophages”, “mM” for “nM”, “A.” for “A (Singh et al., 1988).”
RNA isolation and Northern blot analysis Cells were taken out from culture dishes directly by adding Ultraspec-II RNA reagent (Biotecx Laboratories Inc., Houston, Tex.), and total RNA was isolated according to the manufacturer's protocol. […]

PP 1/2A = experiment: PP1/2A activity in homogenates of LPS-treated astrocytes; type: cell-based, rat; details: LPS 1.0 μg/ml, 30 min; okadaic acid 0-20 nM
Method: In vitro PP1/2A assay The extraction and assay for PP1/2A were performed as described (Begum and Ragolia, 1996). Control and treated cells were scraped off the dishes with 0.3 ml of phosphatase extraction buffer containing 20 mM imidazole-HCl, 2 mM EDTA, 2 mM EGTA, pH 7.0, with 10 μg/ml each of aprotinin, leupeptin, antipain, soybean trypsis inhibitor, 1 mM benzamide, and 1 mM PMSF. The cells were sonicated for 10 s and centrifuged at 2000×g for 5 min, and the supernatants were used for the assay of phosphatase activities using the protein phosphatase assay kit (Life Technologies, Inc.) according to the manufacturer's protocol.

iNOS promoter [6] = experiment: iNOS promoter-derived CAT activity in rat primary astrocytes; type: cell-based; details: LPS 1.0 μg/ml, 14 h
Method: (§2) Construction of reporter plasmid, transfection and assay of chloramphenicol acetyl transferase activity The CAT (chloramphenicol acetyl transferase) under the control of nitric oxide synthase promoter (iNOS) was created by subcloning 1.5 kb promoter from pGEM-NOS at Sph I and Sal I restriction sites of pCAT-basic vector (Promega). […]. The cells were transfected by using the lipofectin (Life Technologies Inc., USA) method, as has been described in manufacturer's protocol, with 2 μg of reporter plasmid. They were then stimulated 24 h after transfection and harvested after 14 h of stimulation. CAT activity was measured as has been described.

iNOS promoter [7] = experiment: iNOS promoter-derived CAT activity in rat macrophages; type: cell-based; details: LPS 1.0 μg/ml, 14 h
Method: as §2

Row | Structure (SMILES) | LPS-induced NO production [1] | LPS- and cytokine-induced production of NO and iNOS protein [2] | TNF-α ([3]; inhibitor 1 nM) [ng/24 h/mg protein] | TNF-α ([3]; inhibitor 2 nM) [ng/24 h/mg protein] | stimulation of the production of NO [4] | TNF-α ([5]; inhibitor 1 nM) [ng/24 h/mg protein] | TNF-α ([5]; inhibitor 2 nM) [ng/24 h/mg protein] | LPS-mediated induction of iNOS protein and mRNA (iNOS) | activities of PP 1/2A (PP 1/2A) | LPS-induced iNOS promoter-derived CAT activity (iNOS promoter [6]) | TNF-α ([3]; inhibitor 5 nM) [ng/24 h/mg protein] | TNF-α ([3]; inhibitor 10 nM) [ng/24 h/mg protein] | TNF-α ([5]; inhibitor 5 nM) [ng/24 h/mg protein] | TNF-α ([5]; inhibitor 10 nM) [ng/24 h/mg protein] | LPS-induced iNOS promoter-derived CAT activity (iNOS promoter [7])
1 | COC[C@@H]([C@H](O)[C@H](O)C(=O)NCC[C@H](C)c1nc(/C=C/C[C@@H]2O[C@]3(C[C@@H](O)[C@@H]2C)O[C@H]([C@H](C[C@H](O)[C@H](C)[C@H](O)[C@H](C)/C=C(C)/C(C)=C/C=C/C(C)=C\C#N)OC)[C@H](OP(=O)(O)O)C3(C)C)co1)N(C)C [Calyculin A] | inhibited the LPS-induced NO production in rat peritoneal macrophages | inhibit the LPS- and cytokine-induced production of NO and the expression of iNOS protein | 27.5 ± 3.1 | 31.2 ± 3.6 | more than three fold | 12.5 ± 1.6 | 16.9 ± 2.1 | enhanced the LPS-mediated induction of iNOS protein and mRNA | also inhibited the activities of PP 1/2A | – | – | – | – | – | –
2 | C=C1[C@@H](O)[C@@H]2O[C@]3(CC[C@H](/C=C/[C@@H](C)[C@@H]4CC(C)=C[C@@]5(O[C@H](C[C@@](C)(O)C(=O)O)CC[C@H]5O)O4)O3)CC[C@H]2O[C@@H]1[C@@H](O)C[C@H](C)[C@H]1O[C@@]2(CCCCO2)CC[C@H]1C [Okadaic acid] | – | – | – | – | – | – | – | – | dose-dependently inhibited the activities of PP 1/2A | stimulated the LPS-induced CAT activity in astrocytes | 24.3 ± 1.9 | 28.9 ± 3.4 | 10.8 ± 1.2 | 14.6 ± 1.8 | inhibited the LPS-induced CAT activity in macrophages
